Assay: In vivo biodistribution of ^225Ac complexes after intravenous injection
Set-up: species or system C57BL/6 mice
Experimental: In Vivo Biodistribution of ^225Ac Complexes of Macropa and DOTA. All experiments were approved by the Institutional Animal Care Committee (IACC) of the University of British Columbia and were performed in accordance with the Canadian Council on Animal Care Guidelines. A total of 9 female C57BL/6 mice (6-8 weeks old, 20-25 g) were used for the biodistribution study of each radiometal complex, n=3 for each time point.
Macropa (100 μL of a 1 mg/mL solution in NH4OAc) was diluted with 387 μL of NH4OAc (1 M, pH 7), and an aliquot (203 μL) of ^225Ac(NO3)3 (˜157 kBq) was then added; the pH of this solution was adjusted to 6.5-7 by the addition of 1 M NaOH (210 μL, trace metal grade). After 5 min at ambient temperature, the reaction solution was analyzed by TLC (0.4 M pH 4 sodium citrate as the eluent), which confirmed >95% radiochemical yield. The reaction was allowed to proceed overnight, and the radiochemical yield was again confirmed to be >95% the following morning. At this time, mice were anesthetized by 2% isoflurane, and approximately 100 μL (10-15 kBq) of the [^225Ac(macropa)]^+ complex were injected into the tail vein of each mouse. After injection, mice were allowed to recover and roam freely in their cages, and were euthanized by CO2 inhalation at 15 min, 1 h, or 5 h (n=3 at each time point) post-injection. Blood was collected by cardiac puncture and placed into an appropriate test tube for scintillation counting. Tissues collected included heart, liver, kidneys, lungs, small intestine, large intestine, brain, bladder, spleen, stomach, pancreas, bone, thyroid, tail, urine, and feces. Tissues were weighed and then counted with a calibrated gamma counter (Packard, Cobra II model 5002) using three energy windows: 60-120 keV (window A), 180-260 keV (window B), and 400-480 keV (window C). Counting was performed both immediately after sacrifice and after 7 days; counts were decay corrected from the time of injection and then converted to the percentage of injected dose (% ID) per gram of tissue (% ID/g). No differences were noted between the data; therefore, the biodistributions are reported using the data acquired immediately using window A.
The biodistribution studies of [^225Ac(DOTA)]^− and ^225Ac(NO3)3 were carried out as described above for [^225Ac(macropa)]^+, with the following modifications. [^225Ac(DOTA)]^− was prepared by adding ^225Ac(NO3)3 (338 μL, 1.1 MBq) to a solution of DOTA (100 μg, 20 mg/mL in H2O) in NH4OAc (467 μL, 0.15 M, pH 7). The pH of the solution was adjusted to 7 using NH4OAc (150 μL, 1 M, pH 7) and the solution was heated at 85° C. for 45 min. RCY>99% was confirmed by TLC as described above. [^225Ac(DOTA)]^− was diluted with saline to a final concentration of 0.05 MBq/100 μL, and 100 μL were injected into each mouse. ^225Ac(NO3)3 (˜58 μL, 0.4 MBq) was diluted and injected in the same manner as [^225Ac(DOTA)]^−. One mouse that was to be euthanized at the 5 h time point in the [^225Ac(DOTA)]^− study died shortly after injection. In the same manner, one mouse that was to be euthanized at the 1 h time point in the ^225Ac(NO3)3 study died.
The in vivo stability [^225Ac(macropa)]^+ was examined by comparing its biodistribution to those of ^225Ac(NO3)3 and [^225Ac(DOTA)]^−. C57BL/6 mice were injected via tail vein with 10-50 kBq of each radiometal complex and were sacrificed after 15 min, 1 h, or 5 h. The amount of ^225Ac retained in each organ was quantified by gamma counting and reported as the percent of injected dose per gram of tissue (% ID/g). The results of these studies are compiled in Tables 1-3. Inadequate stability of an ^225Ac complex leading to the loss of radioisotope in vivo is manifested by the accumulation of ^225Ac in the liver, spleen, and bone of mice.^[11,12,32] […] The biodistribution profile of [^225Ac(macropa)]^+ (FIG. 3B) differs markedly from that of ^225Ac(NO3)3. […]

[1] = 15 min after i.v. injection, energy window A (60-120 keV)
[2] = 15 min after i.v. injection, energy window B (180-260 keV)
[3] = 15 min after i.v. injection, energy window C (400-480 keV)
[4] = 1 h after i.v. injection, energy window A (60-120 keV)
[5] = 1 h after i.v. injection, energy window B (180-260 keV)

## O=[N+]([O-])[O-].O=[N+]([O-])[O-].O=[N+]([O-])[O-].[225Ac] [^225Ac(NO3)3]
[1]
  % ID/g in bladder: 1.477 % ID/g
  % ID/g in blood: 40.966 % ID/g
  % ID/g in bone (femur + joint): 2.764 % ID/g
  % ID/g in brain: 0.614 % ID/g
  % ID/g in feces: 0.240 % ID/g
  % ID/g in heart: 8.557 % ID/g
  % ID/g in kidneys: 10.468 % ID/g
  % ID/g in large intestines: 1.116 % ID/g
  % ID/g in liver: 22.899 % ID/g
  % ID/g in lungs: 12.757 % ID/g
  % ID/g in pancreas: 2.366 % ID/g
  % ID/g in small intestines: 2.002 % ID/g
  % ID/g in spleen: 22.733 % ID/g
  % ID/g in stomach: 2.348 % ID/g
  % ID/g in tail: 7.459 % ID/g
  % ID/g in thyroids: 4.391 % ID/g
  % ID/g in urine: 5.527 % ID/g
[2]
  % ID/g in bladder: 1.6996 % ID/g
  % ID/g in blood: 41.5628 % ID/g
  % ID/g in bone (femur + joint): 2.7487 % ID/g
  % ID/g in brain: 0.6536 % ID/g
  % ID/g in feces: 0.3857 % ID/g
  % ID/g in heart: 8.3605 % ID/g
  % ID/g in kidneys: 9.6424 % ID/g
  % ID/g in large intestines: 1.1570 % ID/g
  % ID/g in liver: 23.6091 % ID/g
  % ID/g in lungs: 12.9714 % ID/g
  % ID/g in pancreas: 2.2821 % ID/g
  % ID/g in small intestines: 1.9641 % ID/g
  % ID/g in spleen: 24.0497 % ID/g
  % ID/g in stomach: 2.3704 % ID/g
  % ID/g in tail: 8.0722 % ID/g
  % ID/g in thyroids: 9.6295 % ID/g
  % ID/g in urine: 5.0951 % ID/g
[3]
  % ID/g in bladder: 1.9351 % ID/g
  % ID/g in blood: 42.3521 % ID/g
  % ID/g in bone (femur + joint): 3.4560 % ID/g
  % ID/g in brain: 0.6755 % ID/g
  % ID/g in feces: 0.4896 % ID/g
  % ID/g in heart: 9.0992 % ID/g
  % ID/g in kidneys: 14.2266 % ID/g
  % ID/g in large intestines: 1.5716 % ID/g
  % ID/g in liver: 24.1147 % ID/g
  % ID/g in lungs: 14.4797 % ID/g
  % ID/g in pancreas: 2.4405 % ID/g
  % ID/g in small intestines: 2.0956 % ID/g
  % ID/g in spleen: 25.4263 % ID/g
  % ID/g in stomach: 2.4232 % ID/g
  % ID/g in tail: 9.1381 % ID/g
  % ID/g in thyroids: 3.5934 % ID/g
  % ID/g in urine: 19.8282 % ID/g
[4]
  % ID/g in bladder: 0.9047 % ID/g
  % ID/g in blood: 20.8234 % ID/g
  % ID/g in bone (femur + joint): 2.4707 % ID/g
  % ID/g in brain: 0.2995 % ID/g
  % ID/g in feces: 0.2189 % ID/g
  % ID/g in heart: 4.4261 % ID/g
  % ID/g in kidneys: 7.2170 % ID/g
  % ID/g in large intestines: 0.6035 % ID/g
  % ID/g in liver: 39.8269 % ID/g
  % ID/g in lungs: 8.2412 % ID/g
  % ID/g in pancreas: 2.1771 % ID/g
  % ID/g in small intestines: 1.5594 % ID/g
  % ID/g in spleen: 34.8831 % ID/g
  % ID/g in stomach: 1.6211 % ID/g
  % ID/g in tail: 5.7939 % ID/g
  % ID/g in thyroids: 2.5988 % ID/g
  % ID/g in urine: 4.5194 % ID/g
[5]
  % ID/g in bladder: 0.8092 % ID/g
  % ID/g in blood: 21.4460 % ID/g
  % ID/g in bone (femur + joint): 2.7705 % ID/g
  % ID/g in brain: 0.3247 % ID/g
  % ID/g in feces: 0.3300 % ID/g
  % ID/g in heart: 4.5832 % ID/g
  % ID/g in kidneys: 6.8770 % ID/g
  % ID/g in large intestines: 0.5629 % ID/g
  % ID/g in liver: 41.0995 % ID/g
